Test results taken from PMC11062922 (Nature Chemical Biology, 2023).
Where two headings read alike, the source gives them in different places. Blank lines part the entries; values can stand above or below the compound they belong to.

Columns and labels:
[1] = biological target: T1, endogenous kinases and other proteins enriched by Kinobeads from mixed lysates of K-562, COLO-205, MV-4-11, SK-N-BE(2) and OVCAR-8 (Homo sapiens, UniProt Q8NI60); assay: Kinobeads competition binding profiling, two doses (100 nM and 1 µM); details: target ADCK3; read-out: apparent Kd;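 note: inhibitor preincubated 45 min at 4 °C in cell lysate, then bead pulldown. Bound protein quantified by label-free mass spectrometry relative to DMSO vehicle control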
T1 construct: to maximize the representation of endogenous proteins; endogenous in cells

XBP1 splicing in cells = system: XBP1 splicing in cells; design: method as in chemicalprobes.org; details: ref chemicalprobes.org; read-out: Potency value in cells (IC50); cited from earlier work
ERN1 = biological target: T2, ERN1 (Homo sapiens, UniProt O75460); design: method as in chemicalprobes.org; details: truncated human IRE1 alpha WT (AA 469-977); ref chemicalprobes.org; cited from earlier work
T2 construct: endogenous in cells

[2] = system: Concanavalin A-induced cytokine production in Whole Blood; design: method as in chemicalprobes.org; details: ref chemicalprobes.org, read-out: Potency value in cells (EC50); cited from earlier work
LCK = system: LCK; design: method as in chemicalprobes.org; details: @ 1 mM ATP, ref chemicalprobes.org; cited from earlier work
[3] = system: CSF1R, FLT3, KIT, PDGFRB, PDGFRA; design: method as in chemicalprobes.org; details: 2nd of 4 values listed for 5 targets; ref chemicalprobes.org; read-out: Potency value in cells (IC50); cited from earlier work
[4] = system: CSF1R, FLT3, KIT, PDGFRB, PDGFRA; design: method as in chemicalprobes.org; details: ref chemicalprobes.org, cited from earlier work
[5] = system: IL-10 secretion in primary bone marrow-derived dendritic cells (BMDCs); assay: IL-10 cytokine secretion assay (ELISA) in Zymosan-stimulated primary BMDCs; type: cell-based, mouse; details: murine BMDCs, inhibitor 30 min before Zymosan stimulation
Description: A subsequent full dose–response experiment confirmed potent and selective binding to SYK ( Kdapp = 58 nM, […] = 0.60; Extended Data Fig. 5a,b). […] One of the effects of Zymosan is that it activates Dectin-1 signaling, in turn activating SYK and leading to increased IL-10 cytokine production (Fig. 3c)[34]. Treatment of cells with the respective SYK inhibitors before Zymosan stimulation indeed led to decreased levels of IL-10 in a dose-dependent fashion (Fig. 3d). […] In line with the cytokine readout, we observed a dose depended reduction of pTyr525/526 indicating SYK inhibition in live cells (Fig. 3e and Extended Data Fig. 5c).
Primary BMDCs were obtained from 9-week-old C57BL/6 mice that were maintained under standard specific pathogen-free conditions. BMDCs were differentiated for 7 days in Roswell Park Memorial Institute medium (Gibco) and granulocyte-macrophage colony-stimulating factor. On day seven, BMDCs were seeded in 96-well plates at 10^5 cells per well in 100 µl of culture medium followed by incubation for 4 h at 37 °C. Subsequently, cells were incubated with SYK inhibitors for 30 min followed by stimulation with Zymosan (final concentration of 50 µg ml^−1; Invivogen) and dispersed in culture medium for 24 h. […] For cytokine secretion quantification, cell culture medium was collected and concentrations of IL-10 in the supernatant were determined using mouse enzyme-linked immunosorbent assay kits (IL-10: Invitrogen) according to the manufacturer’s protocol. Experiments were performed in biological triplicates.

[6] = biological target: T3, endogenous kinases and other proteins enriched by Kinobeads from mixed cancer cell lysates (Homo sapiens, UniProt O75822); assay: Kinobeads pulldown, full dose-response (eight doses); type: binding; details: target EIF3J; in nM;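 note: competition with Kinobeads ε after inhibitor preincubation in lysate (5 mg/ml protein) for 45 min at 4 °C, DMSO control, doses 0.3–1,000 nM, label-free LC–MS/MS quantification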
T3 construct: to maximize the representation of endogenous proteins; endogenous in cells

[7] = biological target: T4, endogenous kinases and other proteins enriched by Kinobeads from mixed cancer cell lysates (Homo sapiens, UniProt P16083); assay: as above; type: binding; details: target NQO2; in nM
T4 construct: endogenous in cells

[8] = biological target: T5, endogenous kinases and other proteins enriched by Kinobeads from mixed cancer cell lysates (Homo sapiens, UniProt P68400); assay: as above; type: binding; details: target CSNK2A1;CSNK2A3; in nM
T5 construct: endogenous in cells

[9] = biological target: T6, endogenous kinases and other proteins enriched by Kinobeads from mixed cancer cell lysates (Homo sapiens, UniProt P19784); assay: as above; type: binding; details: target CSNK2A2; in nM
T6 construct: endogenous in cells

[10] = biological target: T7, endogenous kinases and other proteins enriched by Kinobeads from mixed cancer cell lysates (Homo sapiens, UniProt Q86TW2); assay: as above; type: binding; details: target ADCK1; in nM
T7 construct: endogenous in cells

[11] = biological target: T8, endogenous kinases and other proteins enriched by Kinobeads from mixed cancer cell lysates (Homo sapiens, UniProt P67870); assay: as above; type: binding; details: target CSNK2B; in nM
T8 construct: endogenous in cells

[12] = biological target: T9, endogenous kinases and other proteins enriched by Kinobeads from mixed cancer cell lysates (Homo sapiens, UniProt Q9Y616); assay: as above; type: binding; details: target IRAK3; in nM
T9 construct: endogenous in cells

CSNK2A2 = CSNK2A2 (Homo sapiens, UniProt P19784); assay: Kinobeads two-dose competition binding: CSNK2A2; design: to maximize the representation of endogenous proteins; endogenous in cells; details: Kinobeads two-dose screen (binding); read-out: Kdapp CSNK2A2
Description: Briefly, Kinobeads comprise seven broad-spectrum small molecule kinase inhibitors immobilized on Sepharose beads. […]. Compounds of interest are set to compete for target protein binding with Kinobeads in the lysate and the amount of a given protein bound to Kinobeads in the presence of a compound can be quantified relative to a dimethylsulfoxide (DMSO) vehicle control by label-free mass spectrometry. This assay measures the physical interaction of a compound with thousands of endogenous proteins in parallel and, when systematically increasing the concentration of competitor, enables the calculation of an apparent interaction constant ( Kdapp ) for each compound and protein.
Kinobeads pulldown experiments were performed as described previously[13],[14],[17] with minor modification. […] The protein concentration was adjusted to 5 mg ml^−1. Kinase inhibitors were spiked into 0.5 ml of cell lysate at final concentrations of 100 and 1,000 nM (or DMSO, 0.3, 1, 3, 10, 30, 100, 300 and 1,000 nM for full dose experiments). […] Lysates were incubated for 45 min at 4 °C. Subsequently, lysates were incubated with Kinobeads ε (17.5 µl of settled beads) for 30 min at 4 °C. To assess the degree of protein depletion from the lysates by Kinobeads, the flow through of the DMSO control was recovered for a pulldown of pulldown experiment where the lysate was incubated a second time with fresh Kinobeads. Beads were washed in three steps with buffer containing 0.4%, 0.2% and no IGEPAL. Bound proteins were reduced with 50 mM DTT in 8 M Urea, 40 mM Tris-HCl pH 7.4 for 30 min at room temperature. After alkylation with 55 mM chloroacetamide, the urea concentration was reduced to 1–2 M and proteins were digested with trypsin. Acidified peptides were desalted and concentrated using SepPak tC18 µEluation plates (Waters). Samples were frozen, dried by vacuum centrifugation and stored at −20 °C.
Each kinase inhibitor was processed together with all DMSO controls of the same plate. Additionally, each search was supplemented with five high quality DMSO controls for consistent peptide identification and protein grouping. The resultant file (proteinGroups.txt) was used for subsequent filtering, normalization, data visualization and target annotation that was automatically performed by a data processing pipeline built in house that used R (including the ‘drc’ and ‘heatmap’ packages). First, reverse hits, potential contaminants and not quantified proteins in the DMSO control samples were discarded. Protein raw and label-free quantification intensities were normalized to the median DMSO control intensity to obtain relative residual binding intensities for each protein group at every inhibitor concentration and standard deviations of the DMSO control intensity were calculated. IC50 values were estimated based on the following equation IC50=I×100−inhibition/inhibition where [I] is the inhibitor concentration that was used for IC50 calculation and ‘inhibition’ the relative residual binding intensity. […]. Estimated Kdapp values were then calculated by multiplying the estimated IC50 values with a protein-dependent correction factor that was limited to a maximum value of one. The correction factor accounts for the depletion of a target protein from the lysate by Kinobeads. The depletion can be measured by the ratio of the amount of protein captured in two consecutive pulldowns of the same DMSO control lysate. In this study, correction factors were determined in separate experiments using the same lysate mixture and the same bead batch. Correction factors were set to the median of all correction factors. Targets of kinase inhibitors were annotated using the previously published random forest classifier. A training data set was annotated manually. […]

CK2alpha1 (CSNK2A1) = biological target: T10, CK2alpha1 (CSNK2A1) (Homo sapiens, UniProt P68400); assay: Recombinant kinase activity assay (ProQinase, FlashPlate radiometric): CK2alpha1; type: biochemical; details: Enzyme CK2alpha1; Highest Assay Concentration 1.00E-06 M; read-out: IC50
T10 construct: purchased ProQinase
Description: (§1) Kinase activity assays were performed by ProQinase. Dose-dependent activity inhibition of CDK1/cyclinB, CK2alpha1 and CK2alpha2 were measured using a FlashPlateTM-based radiometric assay at KM (ATP) of the respective kinase.

CDK1/cyclinB = biological target: T11, CDK1/cyclinB (Homo sapiens, UniProt P06493); assay: Recombinant kinase activity assay (ProQinase, FlashPlate radiometric): CDK1/cyclinB; type: biochemical; details: Enzyme CDK1_CycB1; Highest Assay Concentration 1.00E-06 M
T11 construct: purchased ProQinase
Description: as §1

CSNK2A1 (CK2) = biological target: T12, CSNK2A1 (CK2) (Homo sapiens, UniProt P68400); assay: Kinobeads two-dose competition binding: CK2 (CSNK2A1)
T12 construct: endogenous in cells

CK2alpha2 (CSNK2A2) = biological target: T13, CK2alpha2 (CSNK2A2) (Homo sapiens, UniProt P19784); assay: Recombinant kinase activity assay (ProQinase, FlashPlate radiometric): CK2alpha2; type: biochemical
T13 construct: purchased ProQinase
Description: as §1

[13] = biological target: T14, endogenous kinases and other proteins enriched by Kinobeads from mixed lysates of K-562, COLO-205, MV-4-11, SK-N-BE(2) and OVCAR-8 (Homo sapiens, UniProt P35916); assay: Kinobeads competition binding profiling, two doses (100 nM and 1 µM); details: target FLT4; read-out: apparent Kd;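 note: inhibitor preincubated 45 min at 4 °C in cell lysate, then bead pulldown. Bound protein quantified by label-free mass spectrometry relative to DMSO vehicle control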
T14 construct: endogenous in cells

SMILES: CNC(=O)c1cncc(/C=C/c2ccccc2Cl)c1 [GW445017X]
potency estimated from few doses [1]: 747 nM

SMILES: Cc1ccc2c(NS(=O)(=O)c3ccccc3Cl)cccc2c1Oc1ncccc1-c1ccnc(N[C@H]2CCCNC2)n1 [AMG-18]
IC50 (XBP1 splicing in cells): 99 nM
Potency value (ERN1): 13 nM

SMILES: COc1cc(-c2nn([C@H]3CC[C@H](N4CCN(C(C)=O)CC4)CC3)c3ncnc(N)c23)ccc1NC(=O)c1cc2ccccc2n1C [Compound A-770041]
EC50 [2]: 80 nM
Potency value (LCK): 147 nM @ 1 mM ATP

SMILES: CCN1C(C)(C)CC(Oc2ccc(C(=O)Nc3ccc(NC(=O)Nc4cc(C(C)(C)C)on4)cc3)nc2)CC1(C)C [AC710]
IC50 [3]: 2 nM
Potency value ([4]; 1st of 4 values listed for 5 targets): 0.5 nM
Potency value ([4]; 2nd of 4 values listed for 5 targets): 0.6 nM
Potency value ([4]; 3rd of 4 values listed for 5 targets): 1 nM
Potency value ([4]; 4th of 4 values listed for 5 targets): 1.3 nM

SMILES: CCS(=O)(=O)c1ccc(OC)c(Nc2ncc(-c3cccc(-c4ccccc4F)c3)o2)c1 [GW678313X]
potency estimated from few doses [13]: 423 nM

More lines, main results first:

EC50 [6]: 1609.61
EC50 [7]: 295.4
EC50 [8]: 1585.19
EC50 [9]: 1314.91
EC50 [10]: 16437.9
EC50 [11]: 940.697
EC50 [12]: 4708.37
SMILES: c1cn2cc(-c3ccc4cn[nH]c4c3)nc(Nc3ccc(N4CCOCC4)cc3)c2n1 [entospletinib]
IL-10 levels [5]: dose-dependent reduction

potency estimated from few doses (CSNK2A2): 57 nM
IC50 (CK2alpha1 (CSNK2A1)): 116 nM
IC50 (CDK1/cyclinB): > 1000 nM
potency estimated from few doses (CSNK2A1 (CK2); Kinobeads two-dose screen (binding), read-out: Kdapp CK2 (CSNK2A1)): 58 nM
CATDSCK2 (CSNK2A1 (CK2); selectivity score from Kinobeads two-dose data): 0.86
IC50 (CK2alpha2 (CSNK2A2); Enzyme CK2alpha2, Highest Assay Concentration 1.00E-06 M, read-out: IC50): 65.3 nM
IC50 (CK2alpha2 (CSNK2A2); recombinant kinase activity assay at KM (ATP), read-out: Activity IC50 CSNK2A2): 65 nM
SMILES: CONC1=NC(=O)/C(=C/c2ccc3ncccc3c2)S1 [RO4613269-000]
